The test system of series [1] is MRSA ATCC 43300. Put plainly: MIC, CO-ADD broth microdilution. Type of series: cell-based, Staphylococcus aureus. To be noted: for MIC: Staphylococcus aureus, MRSA ATCC 43300, mean (n = 2), read-out: MIC MRSA. For orientation: Broth dilution looks for growth in wells or tubes with falling amounts of substance.
Series [2] concerns P. aeruginosa ATCC27853. Put plainly: Doxycycline potentiation (MIC of antibiotic in presence of synergizing compound). Type of series: cell-based, Pseudomonas aeruginosa. The conditions noted are these: doxycycline 2 μg/mL, P. aeruginosa ATCC 27853.
In series [3] the test system is Klebsiella pneumoniae ATCC700603. Put plainly: MIC, CO-ADD broth microdilution. The conditions noted are these: mean (n = 2). Type of series: cell-based.
Series [4] has as its system human red blood cells. Put plainly: Hemolytic assay. Type of series: cell-based. To be noted: for Hemolysis (HC10, concentration at 10% hemolytic activity): mean (n = 2). The gist of the method:
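Washed human erythrocytes at 0.5 × 10^8 cells/mL in 0.9% NaCl, shaken 10 min with compound, then held 1 h at 37 °C. Released hemoglobin in supernatant after centrifugation read at OD405; HC10 and HC50 from variable-slope sigmoidal fit against log concentration.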

The nature of series [5]: Cytotoxicity assay (resazurin). In kind it is cell-based, human. To be noted: human; HEK293 cells; mean (n = 2); highest dose tested 32 μg/mL; read-out: Cytotoxicity (concentration of compound at 50% cytotoxicity, IC50). (Alamar Blue is a resazurin reagent that responds to reducing activity.)
The test system of series [6] is Pseudomonas aeruginosa PAO1 or ATCC 27853. Put plainly: MIC, broth dilution (CA-SFM). In kind it is cell-based. To be noted: mean (n = 3).
For series [7], the system named is Candida albicans ATCC90028. Put plainly: Antifungal MIC, CO-ADD. Type of series: cell-based. The conditions noted are these: mean (n = 2). The gist of the method: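 Yeast from 3-day YPD cultures was diluted in YNB broth to a final 2.5 × 10^3 CFU/mL and incubated at 35 °C for 36 h without shaking. C. albicans MICs were read by OD530 absorbance. QC used fluconazole and Z'-factor controls.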

Series [8] concerns Cryptococcus neoformans ATCC208821. Put plainly: Antifungal MIC, CO-ADD. Type of series: cell-based. To be noted: ATCC208821, Cryptococcus neoformans ATCC208821, mean (n = 2). The method in brief:
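Fungal strains were grown on YPD agar at 30 °C for 3 days. Five colonies were used to make a yeast suspension of 1 × 10^6 to 5 × 10^6 CFU/mL, which was diluted in yeast nitrogen base (YNB) broth to 2.5 × 10^3 CFU/mL. Covered plates were incubated without shaking at 35 °C for 36 h. Fluconazole was the positive control, and quality was judged from antimicrobial controls and the Z'-factor.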

In series [9] the test system is Acinetobacter baumannii ATCC19606. Put plainly: MIC, CO-ADD broth microdilution. In kind it is cell-based. To be noted: mean (n = 2).
The test system of series [10] is Escherichia coli ATCC 25922. Put plainly: MIC, CO-ADD broth microdilution. Type of series: cell-based. The conditions noted are these: ATCC25922, mean (n = 2).
Series [11] has as its system Staphylococcus aureus ATCC 25923 or ATCC 29213. Put plainly: MIC, broth dilution (CA-SFM). Type of series: cell-based.
The test system of series [12] is HEK293 human embryonic kidney cells. Put plainly: Cytotoxicity assay (resazurin). In kind it is cell-based. To be noted: HEK293.
The test system of series [13] is S. aureus ATCC 25923. Put plainly: Real-time growth curves. Type of series: cell-based, Staphylococcus aureus. The procedure:
(§1) Solutions of compound 15d at concentrations of 2, 4 and 16 µg/mL were tested, each in triplicate, against S. aureus ATCC 25923, MRSA (CF-Marseille) and Bacillus cereus ATCC 11778. Typically, in a 96-well plate, 10 µL of 40, 80 and 320 µg/mL stock solutions of compound 15d were placed, as well as 190 µL of a 5 × 10^5 CFU/mL of the selected bacterial suspension in brain heart infusion (BHI) broth. Positive controls containing only 200 µL of a 5 × 10^5 CFU/mL of bacterial suspension in BHI and negative controls containing only 200 µL of BHI broth were added. The plate was incubated at 37 °C in a TECAN Spark Reader (Roche Diagnostic), and real-time bacterial growth was followed by OD590 nm measurement every 10 min during 19 h.

Series [14] concerns MRSA (CF-Marseille). Put plainly: Real-time growth curves. In kind it is cell-based, Staphylococcus aureus. The protocol: as §1
Series [15] deals with S. aureus ATCC 25923. Put plainly: ATP release assay (bioluminescence). In kind it is cell-based, Staphylococcus aureus. The conditions noted are these: brief exposure. The protocol: The mechanism of action of antibacterial activity observed for 15d was attributed to the ability to disrupt the bacterial cell membrane.
Solutions of test compound 15d were prepared in DMSO at various concentrations. A suspension of growing S. aureus to be studied in Muller–Hinton II broth was prepared and incubated at 37 °C. An aliquot (90 µL) of this suspension was added to 10 µL of test compound solution and vortexed for 10 s. Luciferin–luciferase reagent (Yelen, France; 50 µL) was immediately added to this mixture and luminescent signal quantified with an Infinite M200 microplate reader (Tecan) over a 30 min period. ATP concentration was quantified by internal sample addition. A similar procedure was used for the CTAB positive control.

Series [16] has as its system S. aureus ATCC 25923. Put plainly: Minimum bactericidal concentration test. Type of series: cell-based. The conditions noted are these: Staphylococcus aureus, ATCC25923, same value as MIC. The protocol: (§2) A pure culture of a specified microorganism was grown overnight, then diluted in growth-supporting broth (typically Mueller–Hinton II broth) to a concentration between 1 × 10^5 and 1 × 10^6 CFU/mL. A stock dilution of the antimicrobial test compound was created at approximately 100 times the expected previously determined MIC. Further 1:1 dilution was made in 96-well microtiter plates. All dilutions of the test compound were inoculated with equal volumes of the specified microorganism (typically 100 µL). […] An aliquot of the positive control is plated and used to establish a baseline concentration of the microorganism used. The microtiter plates were then incubated at 37 °C for 24 h. Turbidity indicates growth of the microorganism, and the MIC is the lowest concentration where no growth is visually observed. To determine the minimum bactericidal concentration (MBC), the dilution representing the MIC and at least two of the more concentrated test product dilutions are plated on a solidified agar plate to determine the bacterial viability. The MBC is the lowest concentration where no growth is encountered when compared to the MIC dilution.

The subject of series [17] is Bacillus cereus ATCC 11778. Put plainly: Minimum bactericidal concentration test. In kind it is cell-based. The conditions noted are these: ATCC11778, same value as MIC. The procedure: as §2
Series [18] relates to MRSA (CF-Marseille). Put plainly: Minimum bactericidal concentration test. Type of series: cell-based. The conditions noted are these: Staphylococcus aureus, same value as MIC. The procedure: as §2
For series [19], the system named is Bacillus cereus ATCC 11778. Put plainly: MIC, classical microdilution. In kind it is cell-based. The conditions noted are these: ATCC11778, 4.4 μM = 4 μg/mL.
Series [20] has as its system Bacillus cereus ATCC 11778. Put plainly: Real-time growth curves. Type of series: cell-based. To be noted: B. cereus ATCC 11778. The procedure: as §1
Series [21] relates to MRSA (CF-Marseille). Put plainly: MIC, classical microdilution. Type of series: cell-based. The conditions noted are these: Staphylococcus aureus, 4.4 μM = 4 μg/mL.
[22] abbreviates: Staphylococcus aureus ATCC 25923 or ATCC 29213, mean (n = 3), read-out: MIC S. a.
Where [23] appears, read: at 4.4 μM (4 µg/mL) and 17 μM (16 µg/mL).
The mark [24] stands for this setting: lowest tested concentration 2.2 μM (2 µg/mL).

Read-outs that look alike come from different tables or passages of the source.

Consider `Cl.Cl.S=C(NCCCNCCCCCCCCCCNCCCNC(=S)NC(c1ccccc1)c1ccccc1)NC(c1ccccc1)c1ccccc1` [Compound 6e, N^1,N^10-Bis(3-(3-benzhydrylthioureido)propyl)decane-1,10-diaminium chloride], for which the melting point (as a rule, the temperature of the solid-liquid transition) lay within 114 to 115 °C. Besides, the minimum inhibitory concentration (MIC) (as a rule, the least concentration at which growth counts as inhibited) in series [1] is at most 0.31 µM. In addition, the “antibiotic enhancement of doxycycline” value in series [2] is recorded as “particularly strong enhancers”. Further, in series [3], the minimal inhibitory concentration (MIC) is over 39.5 µM. The “Hemolysis (HC10, concentration at 10% hemolytic activity)” value in [4] is over 39.5 µM. Also, the IC50 at 20 h in series [5] is over 39.5 µM. Also, in [6], the MIC worked out at 247 µM. Also, in series [7], the MIC was at most 0.31 µM. This compound had an MIC in [8] of over 39.5 µM. The same compound came in with an MIC in [9] of 4.9 µM. The same compound came in with an MIC in series [10] of at most 0.31 µM. The MIC in [11] (setting [22]) is over 247 µM.
As to `O=C(CCC(=O)NCCCc1ccccc1)NCCCNCCCCCCCCCCCCNCCCNC(=O)CCC(=O)NCCCc1ccccc1.O=C(O)C(F)(F)F.O=C(O)C(F)(F)F` [Compound 14f, N^1,N^12-Bis(3-(4-oxo-4-((3-phenylpropyl)amino)butanamido)propyl)dodecane-1,12-diaminium 2,2,2-trifluoroacetate], the “activity towards MRSA” value in series [1] (MRSA) is given as “potent”. Also, the MIC was at most 0.26 µM in series [1]; over 32.7 µM in [3]; over 100 µM in series [6]; over 32.7 µM in [7]; over 32.7 µM in series [8]; over 32.7 µM in series [9]. Also, the values for the minimal inhibitory concentration (MIC) in series [10] and in [11] (setting [22]) were over 32.7 µM and 6.25 µM, respectively. For the same compound, the “hemolytic properties” value in series [4] is recorded as “non-hemolytic”. The “Hemolysis (HC10, concentration at 10% hemolytic activity)” value in [4] was over 32.7 µM. For the same compound, the IC50 at 20 h in [5] is over 32.7 µM. In addition, the “cytotoxicity” value in series [12] is listed as “non-toxic”.
`O=C(CC(c1ccccc1)c1ccccc1)NCCCNCCCCCCCCNCCCNC(=O)CC(c1ccccc1)c1ccccc1.O=C(O)C(F)(F)F.O=C(O)C(F)(F)F` [Compound 15d, N^1,N^8-Bis(3-(3,3-diphenylpropanamido)propyl)octane-1,8-diaminium 2,2,2-trifluoroacetate]: the MIC was at most 0.28 µM in series [1]; over 35.4 µM in [3]; 100 µM in series [6]; over 35.4 µM in series [7]; over 35.4 µM in series [8]; over 35.4 µM in [9]. The MIC is 4.4 µM in series [19]; 2.2 µM in [10]; 3.13 µM in series [11] (setting [22]); 4.4 µM in [11] (Staphylococcus aureus, S. aureus ATCC 25923, classical microdilution, 4.4 μM = 4 μg/mL, read-out: MIC); 4.4 µM in series [21]. In addition, the “real-time growth inhibition” value in series [13] (setting [23]), in series [14] (setting [23]) and in series [20] (setting [23]) was “completely inhibited” each time. Further, the “time after which bacterial growth was detected” value in series [13] (setting [24]) was 6 h; in series [14] (setting [24]), 4 h; in series [20] (setting [24]), 12 h. For the same compound, the “leakage of intracellular ATP” value in series [15] is “rapid dose-dependent leakage of intracellular ATP”. Besides, the “hemolytic properties” value in series [4] was “no detectable”. In addition, in [4], the “Hemolysis (HC10, concentration at 10% hemolytic activity)” value is over 35.4 µM. Besides, the IC50 at 20 h in [5] was over 35.4 µM. In addition, the “cytotoxicity” value in series [12] was “no detectable”. In addition, the MBC in [16], in series [17] and in series [18] was 4.4 µM each time.

Values taken from paper PMC10052977, “α,ω-Diacyl-Substituted Analogues of Natural and Unnatural Polyamines: Identification of Potent Bactericides That Selectively Target Bacterial Membranes” (International Journal of Molecular Sciences, 2023).
